Measurements reported in paper PMC3445516 (PLoS ONE, 2012).

Key:
Test in all cases: Ambit kinase profiling, competition binding
PIK3CA(E545K) = biological target: T1, PIK3CA(E545K) (Homo sapiens, UniProt P42336, E545K); details: compound concentration 10 uM, read-out: Percent Competition
T1 construct: purchased Ambit Biosciences (KINOMEscan)
Source text: (§1) Supplement pone.0044653.s004.xls, sheet "Compound 122" | column: Percent Competition

[1] = biological target: T2, TYK2(JH1domain-catalytic) (Homo sapiens, UniProt P29597); details: compound concentration 10 uM
T2 construct: TYK2(JH1domain-catalytic); purchased Ambit Biosciences (KINOMEscan)
Source text: as §1

TSSK1B = biological target: T3, TSSK1B (Homo sapiens, UniProt Q9BXA7); details: compound concentration 10 uM, read-out: Percent Competition
T3 construct: purchased Ambit Biosciences (KINOMEscan)
Source text: as §1

ABL1(Q252H) = biological target: T4, ABL1(Q252H) (Homo sapiens, UniProt P00519, Q252H); details: compound concentration 10 uM, read-out: Percent Competition
T4 construct: purchased Ambit Biosciences (KINOMEscan)
Source text: as §1

PKN2 = biological target: T5, PKN2 (Homo sapiens, UniProt Q16513); details: compound concentration 10 uM, read-out: Percent Competition
T5 construct: purchased Ambit Biosciences (KINOMEscan)
Source text: as §1

SRPK3 = biological target: T6, SRPK3 (Homo sapiens, UniProt Q9UPE1); details: compound concentration 10 uM, read-out: Percent Competition
T6 construct: purchased Ambit Biosciences (KINOMEscan)
Source text: as §1

SRMS = biological target: T7, SRMS (Homo sapiens, UniProt Q9H3Y6); details: compound concentration 10 uM, read-out: Percent Competition
T7 construct: purchased Ambit Biosciences (KINOMEscan)
Source text: as §1

MAP3K3 = biological target: T8, MAP3K3 (Homo sapiens, UniProt Q99759); details: compound concentration 10 uM, read-out: Percent Competition
T8 construct: purchased Ambit Biosciences (KINOMEscan)
Source text: as §1

FLT3(D835H) = biological target: T9, FLT3(D835H) (Homo sapiens, UniProt P36888, D835H); details: compound concentration 10 uM, read-out: Percent Competition
T9 construct: purchased Ambit Biosciences (KINOMEscan)
Source text: as §1

SIK = biological target: T10, SIK (Homo sapiens, UniProt P57059); details: compound concentration 10 uM
T10 construct: purchased Ambit Biosciences (KINOMEscan)
Source text: as §1

PFTK1 = biological target: T11, PFTK1 (Homo sapiens, UniProt O94921); details: compound concentration 10 uM
T11 construct: purchased Ambit Biosciences (KINOMEscan)
Source text: as §1

EPHA2 = biological target: T12, EPHA2 (Homo sapiens, UniProt P29317); details: compound concentration 10 uM, read-out: Percent Competition
T12 construct: purchased Ambit Biosciences (KINOMEscan)
Source text: as §1

BMX = biological target: T13, BMX (Homo sapiens, UniProt P51813); details: compound concentration 10 uM, read-out: Percent Competition
T13 construct: purchased Ambit Biosciences (KINOMEscan)
Source text: as §1

RIOK3 = biological target: T14, RIOK3 (Homo sapiens, UniProt O14730); details: compound concentration 10 uM, read-out: Percent Competition
T14 construct: purchased Ambit Biosciences (KINOMEscan)
Source text: as §1

ERBB2 = biological target: T15, ERBB2 (Homo sapiens, UniProt P04626); details: compound concentration 10 uM, read-out: Percent Competition
T15 construct: purchased Ambit Biosciences (KINOMEscan)
Source text: as §1

MARK3 = biological target: T16, MARK3 (Homo sapiens, UniProt P27448); details: compound concentration 10 uM, read-out: Percent Competition
T16 construct: purchased Ambit Biosciences (KINOMEscan)
Source text: as §1

[2] = biological target: T17, RPS6KA5(Kin.Dom.1-N-terminal) (Homo sapiens, UniProt O75582); details: compound concentration 10 uM, read-out: Percent Competition
T17 construct: RPS6KA5(Kin.Dom.1-N-terminal); purchased Ambit Biosciences (KINOMEscan)
Source text: as §1

ABL1(F317L) = biological target: T18, ABL1(F317L) (Homo sapiens, UniProt P00519, F317L); details: compound concentration 10 uM, read-out: Percent Competition
T18 construct: purchased Ambit Biosciences (KINOMEscan)
Source text: as §1

BRSK1 = biological target: T19, BRSK1 (Homo sapiens, UniProt Q8TDC3); details: compound concentration 10 uM, read-out: Percent Competition
T19 construct: purchased Ambit Biosciences (KINOMEscan)
Source text: as §1

FLT3(K663Q) = biological target: T20, FLT3(K663Q) (Homo sapiens, UniProt P36888, K663Q); details: compound concentration 10 uM, read-out: Percent Competition
T20 construct: purchased Ambit Biosciences (KINOMEscan)
Source text: as §1

HIPK1 = biological target: T21, HIPK1 (Homo sapiens, UniProt Q86Z02); details: compound concentration 10 uM, read-out: Percent Competition
T21 construct: purchased Ambit Biosciences (KINOMEscan)
Source text: as §1

MYO3B = biological target: T22, MYO3B (Homo sapiens, UniProt Q8WXR4); details: compound concentration 10 uM, read-out: Percent Competition
T22 construct: purchased Ambit Biosciences (KINOMEscan)
Source text: as §1

MELK = biological target: T23, MELK (Homo sapiens, UniProt Q14680); details: compound concentration 10 uM, read-out: Percent Competition
T23 construct: purchased Ambit Biosciences (KINOMEscan)
Source text: as §1

ZAP70 = biological target: T24, ZAP70 (Homo sapiens, UniProt P43403); details: compound concentration 10 uM, read-out: Percent Competition
T24 construct: purchased Ambit Biosciences (KINOMEscan)
Source text: as §1

TAK1 = biological target: T25, TAK1 (Homo sapiens, UniProt O43318); details: compound concentration 10 uM, read-out: Percent Competition
T25 construct: purchased Ambit Biosciences (KINOMEscan)
Source text: as §1

PDPK1 = biological target: T26, PDPK1 (Homo sapiens, UniProt O15530); details: compound concentration 10 uM, read-out: Percent Competition
T26 construct: purchased Ambit Biosciences (KINOMEscan)
Source text: as §1

EPHA7 = biological target: T27, EPHA7 (Homo sapiens, UniProt Q15375); details: compound concentration 10 uM, read-out: Percent Competition
T27 construct: purchased Ambit Biosciences (KINOMEscan)
Source text: as §1

MLK3 = biological target: T28, MLK3 (Homo sapiens, UniProt Q16584); details: compound concentration 10 uM
T28 construct: purchased Ambit Biosciences (KINOMEscan)
Source text: as §1

IKK-alpha = biological target: T29, IKK-alpha (Homo sapiens, UniProt O15111); details: compound concentration 10 uM, read-out: Percent Competition
T29 construct: purchased Ambit Biosciences (KINOMEscan)
Source text: as §1

FLT3 = biological target: T30, FLT3 (Homo sapiens, UniProt P36888); details: compound concentration 10 uM, read-out: Percent Competition
T30 construct: purchased Ambit Biosciences (KINOMEscan)
Source text: as §1

EPHB1 = biological target: T31, EPHB1 (Homo sapiens, UniProt P54762); details: compound concentration 10 uM, read-out: Percent Competition
T31 construct: purchased Ambit Biosciences (KINOMEscan)
Source text: as §1

AURKA = biological target: T32, AURKA (Homo sapiens, UniProt O14965); details: compound concentration 10 uM, read-out: Percent Competition
T32 construct: purchased Ambit Biosciences (KINOMEscan)
Source text: as §1

PFTAIRE2 = biological target: T33, PFTAIRE2 (Homo sapiens, UniProt Q96Q40); details: compound concentration 10 uM, read-out: Percent Competition
T33 construct: purchased Ambit Biosciences (KINOMEscan)
Source text: as §1

MST1R = biological target: T34, MST1R (Homo sapiens, UniProt Q04912); details: compound concentration 10 uM, read-out: Percent Competition
T34 construct: purchased Ambit Biosciences (KINOMEscan)
Source text: as §1

IKK-epsilon = biological target: T35, IKK-epsilon (Homo sapiens, UniProt Q14164); details: compound concentration 10 uM, read-out: Percent Competition
T35 construct: purchased Ambit Biosciences (KINOMEscan)
Source text: as §1

PKAC-alpha = biological target: T36, PKAC-alpha (Homo sapiens, UniProt P17612); details: compound concentration 10 uM, read-out: Percent Competition
T36 construct: purchased Ambit Biosciences (KINOMEscan)
Source text: as §1

SRPK1 = biological target: T37, SRPK1 (Homo sapiens, UniProt Q96SB4); details: compound concentration 10 uM, read-out: Percent Competition
T37 construct: purchased Ambit Biosciences (KINOMEscan)
Source text: as §1

[3] = biological target: T38, RPS6KA4(Kin.Dom.1-N-terminal) (Homo sapiens, UniProt O75676); details: compound concentration 10 uM, read-out: Percent Competition
T38 construct: RPS6KA4(Kin.Dom.1-N-terminal); purchased Ambit Biosciences (KINOMEscan)
Source text: as §1

NEK1 = biological target: T39, NEK1 (Homo sapiens, UniProt Q96PY6); details: compound concentration 10 uM, read-out: Percent Competition
T39 construct: purchased Ambit Biosciences (KINOMEscan)
Source text: as §1

PIM1 = biological target: T40, PIM1 (Homo sapiens, UniProt P11309); details: compound concentration 10 uM, read-out: Percent Competition
T40 construct: purchased Ambit Biosciences (KINOMEscan)
Source text: as §1

Fc1ccc(-c2c(-c3ccncc3)[nH]c3nccnc23)cc1 [RO1155697-000-005]
inhibition at 10 µM (PIK3CA(E545K)): < 50% | Percent Competition [1]: <50% | inhibition at 10 µM (TSSK1B): < 50% | inhibition at 10 µM (ABL1(Q252H)): < 50% | inhibition at 10 µM (PKN2): < 50% | inhibition at 10 µM (SRPK3): < 50% | inhibition at 10 µM (SRMS): < 50% | inhibition at 10 µM (MAP3K3): < 50% | inhibition at 10 µM (FLT3(D835H)): < 50% | Percent Competition (SIK): <50% | Percent Competition (PFTK1): <50% | inhibition at 10 µM (EPHA2): < 50% | inhibition at 10 µM (BMX): < 50% | inhibition at 10 µM (RIOK3): < 50% | inhibition at 10 µM (ERBB2): < 50% | inhibition at 10 µM (MARK3): < 50% | inhibition at 10 µM [2]: < 50% | inhibition at 10 µM (ABL1(F317L)): < 50% | inhibition at 10 µM (BRSK1): < 50% | inhibition at 10 µM (FLT3(K663Q)): < 50% | inhibition at 10 µM (HIPK1): < 50% | inhibition at 10 µM (MYO3B): < 50% | inhibition at 10 µM (MELK): < 50% | inhibition at 10 µM (ZAP70): < 50% | inhibition at 10 µM (TAK1): < 50% | inhibition at 10 µM (PDPK1): < 50% | inhibition at 10 µM (EPHA7): < 50% | Percent Competition (MLK3): <50% | inhibition at 10 µM (IKK-alpha): < 50% | inhibition at 10 µM (FLT3): < 50% | inhibition at 10 µM (EPHB1): < 50% | inhibition at 10 µM (AURKA): < 50% | inhibition at 10 µM (PFTAIRE2): < 50% | inhibition at 10 µM (MST1R): < 50% | inhibition at 10 µM (IKK-epsilon): < 50% | inhibition at 10 µM (PKAC-alpha): < 50% | inhibition at 10 µM (SRPK1): < 50% | inhibition at 10 µM [3]: < 50% | inhibition at 10 µM (NEK1): < 50% | inhibition at 10 µM (PIM1): < 50%
